Measured values taken from patent publication US5648382A, “Cyclohexane compounds” (Adir et Compagnie, priority 1995, dated 1997).

Tested on: chicken embryo chorio-allantoic membrane
Experiment: Inhibition of neovascularization of chicken embryo chorioallantoic membrane
Type: in vivo
Settings: avascular zone greater than 4 mm in diameter, 48 hours after disk placed on CAM on day 6
Protocol: Example B: Inhibition of Neovascularization of Chicken Embryo Chorioallantoic Membrane
This test was carried out with chicken embryos in the manner described above (Crum R., Szabo S. and Folkman J., Science, (1985), 230, 1375-1378). The fertilized eggs are incubated at 37° C. (D0). A pocket of air is created by removing 1 ml of albumin (D3), then a window is cut from the shell (D4) and the vitelline membrane is removed in order to separate the chorio-allantoic membrane (CAM).
The products to be tested are dissolved in ethanol and placed on methylcellulose disks which are dried and placed on the CAM on day 6. From 8 to 16 eggs are used per group. The zone situated round the disk is then examined 48 hours later. The eggs having an avascular zone greater than 4 mm in diameter are counted and the results are expressed as a percentage of eggs having an avascular zone.

`CC1OC1(C)[C@@]1(O)C[C@H](OC(=O)NC(=O)CCl)CC[C@]12CO2` (relative stereo) [Example 6, (3S*, 4R*, 6R*)-6-Chloroacetylcarbamoyloxy-4-hydroxy-4-(2,3-dimethyloxiran-2-yl)-1-oxa-spiro[2.5]octane] and `CC1([C@]23O[C@H]2[C@@H](OC(=O)NC(=O)CCl)CC[C@]32CO2)CO1` (single isomer, unassigned) [Example 17 Diastereoisomer A, (1R*,2S*,5S*,6S*)-5-Chloroacetylcarbamoyloxy-1-[(2S* and 2R*)-(2-methyloxiran-2-yl)]-2-(2-spiro-oxiranyl)-7-oxabicyclo[4.1.0]heptan] are within error of each other in “% of eggs having an avascular zone” value: 79 ± 9% for the first, 74 ± 7% for the second.

`CC1OC1(C)[C@@]1(O)C[C@H](OC(=O)NC(=O)CCl)CC[C@]12CO2` (relative stereo) [Example 7, (3S*; 4R*, 6R*)-6-Chloroacetylcarbamoyloxy-4-hydroxy-4-(2,3-di-methyl-2-oxiranyl)-1-oxa-spiro[2.5]octane] and `CC1([C@]23O[C@H]2[C@H](OC(=O)NC(=O)CCl)CC[C@]32CO2)CO1` (single isomer, unassigned) [Example 30 Diastereoisomer A, (1R*,2S*,5R*,6S*)-5-Chloroacetylcarbamoyloxy-1-[(2S* and 2R*)-(2-methyloxiran-2-yl)]-2-(2-spiro-oxiranyl)-7-oxabicyclo[4.1.0]heptan] are within error of each other in “% of eggs having an avascular zone” value: 81 ± 10% for the first, 75 ± 7% for the second.

`O=C(CCl)NC(=O)O[C@@H]1CC[C@]2(CO2)[C@@](O)(CCCCCc2ccccc2)[C@@H]1Br` (relative stereo) [Example 10, (3S*, 4S*, 5R*, 6R*)-5-Bromo-6-chloroacetylcarbamoyloxy-4-hydroxy-4-(5-phenylpentyl)-1-oxa-spiro[2.5]octane] and `O=C(CCl)NC(=O)O[C@@H]1CC[C@]2(CO2)[C@@]2(CCCCCc3ccccc3)O[C@@H]12` (relative stereo) [Example 18, (1S*,2S*,5R*,6S*)-5-Chloroacetylcarbamoyloxy-2-(2-spiro-oxiranyl)-1-(5-phenyl-pentyl)-7-oxabicyclo[4.1.0]heptane] are within error of each other in “% of eggs having an avascular zone” value: 73 ± 11% for the first, 69 ± 6% for the second.

Going from `C[C@@]1(OC(=O)NC(=O)CCl)CC[C@@H](OC(=O)NC(=O)CCl)[C@@H]2O[C@@]21CCCCCc1ccccc1` (relative stereo) [Example 19, (1S*,2R*,5R,*6S*)-2,5-Dichloroacetylcarbamoyloxy-2-methyl-1-(5-phenylpentyl)-7-oxabicyclo[4.1.0]heptane] to `O=C(CCl)NC(=O)O[C@H]1CC[C@]2(CO2)[C@@](CCCCCc2ccccc2)(OC(=O)NC(=O)CCl)C1` (relative stereo) [Example 28, (3S*,4S*6S*)-4,6-Dichloroacetylcarbamoyloxy-4-(5-phenylpentyl)-1-oxa-spiro[2.5]octane], the “% of eggs having an avascular zone” value rises from 76 ± 9% to 90 ± 4%.

`CC1([C@@]23OC(=O)O[C@@H]2[C@H](OC(=O)NC(=O)CCl)CC[C@]32CO2)CO1` (relative stereo) [Example 23, (3S*,4S*,5R*,6R*)-6-Chloroacetylcarbamoyloxy-4-(2-methyl-oxiran-2-yl)-1-oxa-spiro[2.8]benzo[1.3]dioxol-2-one] and `CC1([C@]23O[C@H]2[C@H](OC(=O)NC(=O)CCl)CC[C@]32CO2)CO1` (single isomer, unassigned) [Example 30 Diastereoisomer B, (1R*,2S*,5R*,6S*)-5-Chloroacetylcarbamoyloxy-1-[(2S* and 2R*)-(2-methyloxiran-2-yl)]-2-(2-spiro-oxiranyl)-7-oxabicyclo[4.1.0]heptan] are within error of each other in “% of eggs having an avascular zone” value: 78 ± 7% for the first, 68 ± 5% for the second.

`C=C(C)[C@]12O[C@H]1[C@H](OC(=O)NC(=O)CCl)CC[C@]21CO1` (relative stereo) [Example 29, (1S*,2S*,5R*,6S*)-5-Chloroacetylcarbamoyloxy-1-isopropenyl-2(2-spiro-oxiranyl)-7-oxabicyclo[4.1.0]heptane] and `CC(C)CCCC12OC1C(OC(=O)NC(=O)CCl)CCC21CO1` (stereo not drawn) [Example 21, 5-Chloroacetylcarbamoyloxy-2-(2-spiro-oxiranyl)-1-(4-methyl-pentyl)-7-oxabicyclo[4.1.0]heptane] are within error of each other in “% of eggs having an avascular zone” value: 66 ± 6% for the first, 76 ± 6% for the second.

In the case of `O=C(CCl)NC(=O)O[C@H]1CC[C@]2(CO2)[C@](O)(C2OC2CCCc2ccccc2)[C@H]1Br` (single isomer, unassigned) [Example 13], the “% of eggs having an avascular zone” value is reported as 70 ± 16%.

Tested on: tumour
Experiment: Antitumour activity in mice, subcutaneous tumour implant
Type: in vivo
Settings: 30 mg/kg, i.p., day 1 to day 12; tumour weight on day 13
Protocol: Example C: Antitumour Activity
The antitumour activity of the compounds of the invention was studied in accordance with the protocol described by R. I. Geran et al, Cancer Chemotherapy Reports, (1972), Part 3, pages 3 et seq.
Mice were divided at random into treated groups (11 mice per group) and a control group of 40 mice.
Tumour fragments were implanted on day 0 (subcutaneous implant). The compounds to be tested were administered for 12 days (day 1 to day 12) by the i.p. route.
The average weight of the tumour was determined on day 13 after implantation. The percentage inhibition was calculated in accordance with the following formula: [formula] As an example, the compound of Example 27 gave the following results: […]

With `O=C(CCl)NC(=O)O[C@@H]1CC[C@]2(CO2)[C@](CCCCCc2ccccc2)(OC(=O)NC(=O)CCl)C1` (relative stereo) [Example 27, (3S*,4R*,6R*)-4,6-Dichloroacetylcarbamoyloxy-4-(5-phenylpentyl)-1-oxa-spiro[2.5]octane] the “% inhibition (tumour weight)” value was 56%.

Same assay, conditions: 60 mg/kg, i.p., day 1 to day 12; tumour weight on day 13

With `O=C(CCl)NC(=O)O[C@@H]1CC[C@]2(CO2)[C@](CCCCCc2ccccc2)(OC(=O)NC(=O)CCl)C1` (relative stereo) [Example 27, (3S*,4R*,6R*)-4,6-Dichloroacetylcarbamoyloxy-4-(5-phenylpentyl)-1-oxa-spiro[2.5]octane] the “% inhibition (tumour weight)” value was 82%.
